The subject of data set [1] is HaCaT cells. The data set is described as follows: m6A methylation level of drug-treated HaCaT keratinocytes by nanopore sequencing. The format is cell-based, human. As to conditions: 50 nM drug, 24 hours, vs blank control group. As to the method: 1*10^8 HaCaT cells were seeded in culture dishes, into which 50 nM drugs (including sorafenib, capecitabine, docetaxel, and osimertinib) were added, respectively. The cells were cultured in an incubator containing 5% CO2 at 37°C for 24 hours and washed with PBS after culture media were removed. Centrifugation was performed, the supernatant was discarded, and then, 400 µL of an RLT cell lysis buffer (QIAGEN, Cat.#79216) was added. A portion of samples were selected, into which 400 µL of 70% ethanol was added. The mixture was evenly stirred and then transferred to an RNeasy mini column, and RNA was extracted using an RNeasy mini kit (QIAGEN, Cat.#74104). 2 µL of an RNA sample was selected and dissolved in 98 µL of a 10 mM Tris-HCl buffer solution, and the absorbance at 260 nm was measured using a Nanodrop (Thermo Fisher Scientific) to determine the RNA concentration.
40 µg of an RNA sample was selected for enrichment of mRNA (PolyA+RNA) using an NEBNext Poly(A) mRNA magnetic isolation module (NEB, Cat.#E7490), and then, a 3' end of the above enriched mRNA (PolyA+RNA) molecule was ligated with reverse transcription adapter RTA using a direct RNA sequencing kit (Oxford Nanopore Technologies, Cat.#SQK-RNA002). A reverse transcription reaction was performed with the mRNA (PolyA+RNA) molecule as a template to synthesize a complementary strand, a terminal end of the reverse transcription adapter RTA was ligated with a sequencing adapter (RNA adapter) to form a final sequencing library, and quantitative detection was performed using a Qubit™ dsDNA HS assay kit (Invitrogen, Cat.#LOT2133187).
After quality inspection of the library, the prepared sequencing library was loaded onto a PromethION flow cell chip (Oxford Nanopore Technologies, Cat.#FLO-MIN106D), and placed in a PromethION sequencer (Oxford Nanopore Technologies) for sequencing by selecting a matched sequencing mode. Basecalling was performed on sequencing data through guppy, and m6A methylation analysis was performed on original fast5 data.

For data set [2], the system named is chemotherapeutic drug-induced mouse model with hand-foot syndrome. The experiment in a line: chemotherapeutic drug-induced mouse model with hand-foot syndrome. As to conditions: for swelling of the hind limb toes of the mice / epidermal layer and the stratum corneum in the skin tissues of the hind limb toes: modeling drug oral; for swelling of the hind limb toes of the mice: 14 days: capecitabine 200 mg/kg, docetaxel 25 mg/kg; for epidermal layer and the stratum corneum in the skin tissues of the hind limb toes: 14 days: capecitabine, docetaxel; for skin of the hind limb toes of the mice (appearance): modeling for 14 days: capecitabine 200 mg/kg, docetaxel 25 mg/kg oral gavage once daily. It counts as in vivo, ICR mice. The source says:
After adaptive feeding for 7 days, SPF-grade ICR mice (male, 5-6 weeks old, with a body weight of approximately 35 g) were randomly divided into groups, including a blank control group (6 mice), a capecitabine modeling group (6 mice), a docetaxel modeling group (6 mice), a capecitabine + compound of formula (I) group (6 mice), a docetaxel + compound of formula (I) group (6 mice), a capecitabine + nicotinamide group (6 mice), and a docetaxel + nicotinamide group (6 mice). The groups were respectively administered corresponding modeling drugs by oral gavage (capecitabine at 200 mg/kg and docetaxel at 25 mg/kg) once daily; and the blank control group was administered an equivalent volume of normal saline. After administration with the chemotherapeutic drugs for 2 weeks, the ointments containing the compound of formula (I) (at a compound content of 3%) used in Example 10 were respectively applied topically in the groups, or nicotinamide was orally administered (100 mg/kg) once daily continuously for 16 days.
Measurement of the degree of swelling of toes: The degree of swelling of hind limb toes of the mice was measured using a toe swelling tester (KW-7C, Nanjing Calvin Biotechnology Co., Ltd.) before administration with the modeling drugs, after administration with the modeling drugs for 2 weeks, and before sacrifice, respectively. Before measurement, ankle joints of hind feet of the mice were marked at same positions before administration, after administration for 2 weeks, and before sacrifice. During measurement, water was properly located at the same level as the marked positions, and numerical values were recorded after becoming stable.
Pathological staining of skin tissues: Skin tissue samples were selected from hind limb toes of the mice and placed in 4% paraformaldehyde for fixation at room temperature for 4 hours. Then, the tissues were taken out and rinsed with running water for several hours. The samples were subjected to dehydration treatment with 70%, 80%, and 90% ethanol solutions, followed by treatment with a mixed solution of equal amounts of absolute alcohol and xylene for 15 minutes, and then permeabilized twice with a xylene solution for 15 minutes each time until the samples became transparent. The samples were placed in a mixture of half xylene and half paraffin for soaking for 15 minutes, and then, paraffin I and paraffin II were added for wax penetration for one hour, respectively. After embedding with paraffin, the samples were sectioned, baked, dewaxed, and hydrated. Then, the hydrated sections were placed in a hematoxylin solution (ZSGB-BIO, article No. 23041001) for staining for 3 minutes, and a differentiation solution of hydrochloric acid in ethanol was added for differentiation for 15 seconds. After rinsing with water, a Scott bluing solution (Servicebio, article No. 20230801) was added for bluing for 15 seconds. After rinsing with running water, the sections were stained with an eosin solution (Solarbio, article No. 33535) for 3 minutes, rinsed with running water, dehydrated, permeabilized, sealed, and inspected under a microscope.
Immunohistochemical staining: After baking, dewaxing, and hydration, paraffin sections of skin tissues of hind limb toes of the mice were subjected to antigen retrieval using a 0.2 M citric acid buffer solution (containing 1.534 g of citric acid, 3.1 g of sodium citrate, and 100 mL of distilled water, pH 4.7). Endogenous […] was removed using 3% hydrogen peroxide (Shandong Annjet High-Tech Disinfection Technology Co., Ltd., article No. 20290902), and the sections were incubated at room temperature for 10 minutes and then fully rinsed with a PBS buffer solution (containing 8 g of NaCl, 0.2 g of KCl, 1.44 g of Na2HPO4, and 1 M HCl, pH 7.4). The sections were permeabilized with 0.5% Triton-X-100 (AmyJet Scientific, article No. A-CSH436-100 mL), respectively permeabilized with mouse anti-IL-1β and rabbit IL-8 for 10 minutes, and not permeabilized with rabbit anti-IL-6. […]

Data set [3] deals with HaCaT cells. The experiment in a line: m6A methylation level of human keratinocytes (EpiQuik m6A RNA methylation quantification kit). The format is cell-based. To be noted: 50 nM drug alone, 24 hours, relative to control group 1 (DMSO). The procedure: HaCaT cells were cultured in DMEM culture medium containing 10% fetal bovine serum, 100 U/mL penicillin, and 100 µg/mL streptomycin. Culture dishes were placed in an incubator containing 5% CO2 for culture at 37°C for 24 hours. An equal volume of DMSO was added in control group 1, 50 nM sorafenib, capecitabine, docetaxel, and osimertinib were respectively added in control groups A, B, C, and D, and 400 nM test compounds or nicotinamide were respectively added in sample groups A1, A2, B1, B2, C1, C2, D1, and D2 after the addition of 50 nM corresponding compounds. The cells were continuously cultured for 24 hours, washed with PBS, and then collected by high-speed centrifugation. Total RNA was extracted using Trizol reagent (Sigma Aldrich), and RNA m6A methylation of a sample was quantitatively detected using an EpiQuik m6A RNA methylation quantification kit. The concentrations of positive control samples for a standard curve were 0.01 ng/µl, 0.02 ng/µl, 0.05 ng/µl, 0.1 ng/µl, 0.2 ng/µl, and 0.5 ng/µl. The absorbance at 450 nm was read using a microplate reader (Tecan GENios). A quantitative calculation formula for m6A is as follows: m6A(ng) = (absorbanceofsamplewell−absorbanceofbackroundwell)/slope of standard curve [formula] m6A(%) = m6A(ng)/RNA amount of sample(ng)*100%. [formula]

A short description of data set [4]: competitive suspension tests of crystal forms (XRPD). It counts as physicochemical. To be noted: isopropanol, isopropyl acetate, and acetonitrile; 5°C, 25°C, 50°C, 3 days. As to the method:
A 2θ scanning angle of the sample was 3°-40°, a scanning step size was 0.02°, and a scanning time per step was 0.12 s/step. An optical tube voltage and a current were 40 kV and 40 mA, respectively. During sample preparation, an appropriate amount of the sample was placed on a sample tray and flattened with a tool such as a glass slide to ensure a smooth and even surface.
Resulting suspensions were suspended at 5°C, 25°C, and 50°C for 3 days, respectively. The resulting suspensions were centrifuged, and solid portions were detected by XRPD.

Regarding `CCCCCOC(=O)Nc1nc(=O)n([C@@H]2O[C@H](C)[C@@H](O)[C@H]2O)cc1F` [Capecitabine, capecitabine], the “m6A methylation levels of HaCaT cells higher than that of the control group” value in the data set with HaCaT cells [1] is reported as 6.01 fold. In addition, the “cytokine IL-8 in the skin tissues of the hind limb toes of the mice” value in data set [2] (capecitabine oral 14 days, vs normal control group, p<0.05) is “significantly increased”. For the same compound, the “swelling of the hind limb toes of the mice” value in data set [2] is on record as “swelling of the hind limb toes of the mice was caused”. In data set [2] (vs normal control group), the “epidermal layer and the stratum corneum in the skin tissues of the hind limb toes” value is given as “significantly thickened”; the “skin of the hind limb toes of the mice (appearance)” value was “obvious erythema, rhagades, and blisters”. Also, the m6A fold change with HaCaT cells [3] is listed as 6.7 fold.
Turning to `NC(=O)[C@H]1CCCc2c1[nH]c1ccc(Cl)cc21` [Crystal form B, (S)-6-chloro-2,3,4,9-tetrahydro-1H-carbazole-carboxamide], the “crystal form after competitive suspension slurrying” value in data set [4] is “converted into the crystal form F”.
As to `CC(=O)O[C@@]12CO[C@@H]1C[C@H](O)[C@@]1(C)C(=O)[C@H](O)C3=C(C)[C@@H](OC(=O)[C@H](O)[C@@H](NC(=O)OC(C)(C)C)c4ccccc4)C[C@@](O)([C@@H](OC(=O)c4ccccc4)[C@H]21)C3(C)C` [Docetaxel, docetaxel], the “m6A methylation levels of HaCaT cells higher than that of the control group” value in the data set on HaCaT cells [1] amounted to 3.97 fold. In addition, the “cytokine IL-6 in the skin tissues of the hind limb toes of the mice” value in data set [2] (docetaxel oral 14 days, vs normal control group, p<0.05) is “significantly increased”. Besides, the “swelling of the hind limb toes of the mice” value in data set [2] is on record as “swelling of the hind limb toes of the mice was caused”. In addition, in data set [2] (vs normal control group), the “epidermal layer and the stratum corneum in the skin tissues of the hind limb toes” value was “significantly thickened”; the “skin of the hind limb toes of the mice (appearance)” value is “obvious erythema, rhagades, and blisters”. Further, in the data set with HaCaT cells [3], the m6A fold change is 5.6 fold.
